Measured values reported in patent publication EP0888346B1, “CORALYNE ANALOGS AS TOPOISOMERASE INHIBITORS” (RUTGERS, THE STATE UNIVERSITY OF NEW JERSEY, priority 1996, dated 1997).
Read-outs that look alike come from different tables or passages of the source.

Columns and labels:
[1] = system: calf thymus topoisomerase II; assay: Topo II cleavage assay (plasmid YEpG DNA); format: biochemical; details: concentration relative to VM-26 = 1 producing the same cleavage on the plasmid DNA
Source text: The plasmid pET11a and the E. coli strain BL21(DE3) used for enzyme expression were purchased from Novagen. IPTG was purchased from Sigma. The ECL system used for the Western blotting analysis of bacterial lysates was from Amersham (UK). All the restriction enzymes and Vent polymerase were from New England Biolabs. Mammalian topoisomerase II was isolated from calf thymus glands according to the published procedure (Halligan et al., J. Biol. Chem. 260:2475-2482 (1985)). The single copy yeast plasmids YCpGAL1 expressing various topoisomerase I genes in JN2-134 yeast strain were a kind gift of Dr. M-A. Bjornsti (Thomas Jefferson University, Philadelphia, PA). All bacterial and yeast media were from Difco (Detroit, MI), while cell culture media were purchased from Gibco-BRL (Gaithersburg, MD).
(§1) Cleavage assays for the recombinant topoisomerases I and calf thymus topoisomerases I and II were done as described (Liu et al., J. Biol. Chem. 258:15365-15370 (1983)). The plasmid YEpG DNA used for the cleavage assays was prepared and labeled at its 3'-end using the published procedures.

[2] = system: camptothecin-resistant CPT-K5 cells; assay: MTT-microtiter plate tetrazolinium cytotoxicity assay (MTA), camptothecin-resistant cells; details: Homo sapiens, CPT-K5, 96 h, read-out: Cytotoxicity IC50 CPT-K5
Experimental: The IC50 of the drugs tested were determined by the MTT-microtiter plate tetrazolinium cytotoxicity assay (MTA) (Mosmann, T., J. Immunol. Methods 65:55-63 (1983); Denizot et al., J. Immunol. Methods 89:271-277 (1986)). Human lymphoblast RPMI 8402 cells and their camptothecin-resistant CPT-K5 cells (Andoh et al., Proc. Natl. Acad. Sci., USA 84:5565-5569 (1987)) were kindly provided by Dr. Toshiwo Andoh (Aichi Cancer Center Research Institute, Nagoya, Japan). […] Cells (2000 cells/well, seeded in […] growth medium) were grown in suspension at 37°C in 5% CO2 and maintained by regular passage in RPMI medium supplemented with 10% heat inactivated fetal bovine serum, L-glutamine (2 mM), penicillin (100 U/ml), and streptomycin (0.1 mg/ml). The cells were exposed continuously for 4 days to different drug concentrations, and assayed at the end of the fourth day. Each concentration and the no drug control were repeated at least twice in 6 replica wells. The results were plotted and the IC50 then measured. The drug sensitive human epidermoid carcinoma KB 3-1 cell line and its vinblastine-selected multidrug-resistant variant KB-V1 cells (Akiyama et al., Genetics 11:117-126 (1985)) were kindly provided by Dr. Michael Gottesmann (National Cancer Institute). They were grown as monolayer cultures at 37°C in 5% CO2 and maintained by regular passage in Dulbecco's minimal essential medium supplemented with 10% heat inactivated fetal bovine serum. KB-V1 cells were maintained in the presence of […] vinblastine.

[3] = target: T1, recombinant CPT-K5 topoisomerase I (Homo sapiens, UniProt P11387, D533G); assay: Cleavage assay with camptothecin-resistant mutant topo I; format: biochemical; details: relative to wildtype human topoisomerase I
T1 construct: 15 amino acid vector-derived fusion (pET-11a leader); made in house; host or cells: E. coli BL21(DE3)
T1 sequence (P11387 1-765 D533G): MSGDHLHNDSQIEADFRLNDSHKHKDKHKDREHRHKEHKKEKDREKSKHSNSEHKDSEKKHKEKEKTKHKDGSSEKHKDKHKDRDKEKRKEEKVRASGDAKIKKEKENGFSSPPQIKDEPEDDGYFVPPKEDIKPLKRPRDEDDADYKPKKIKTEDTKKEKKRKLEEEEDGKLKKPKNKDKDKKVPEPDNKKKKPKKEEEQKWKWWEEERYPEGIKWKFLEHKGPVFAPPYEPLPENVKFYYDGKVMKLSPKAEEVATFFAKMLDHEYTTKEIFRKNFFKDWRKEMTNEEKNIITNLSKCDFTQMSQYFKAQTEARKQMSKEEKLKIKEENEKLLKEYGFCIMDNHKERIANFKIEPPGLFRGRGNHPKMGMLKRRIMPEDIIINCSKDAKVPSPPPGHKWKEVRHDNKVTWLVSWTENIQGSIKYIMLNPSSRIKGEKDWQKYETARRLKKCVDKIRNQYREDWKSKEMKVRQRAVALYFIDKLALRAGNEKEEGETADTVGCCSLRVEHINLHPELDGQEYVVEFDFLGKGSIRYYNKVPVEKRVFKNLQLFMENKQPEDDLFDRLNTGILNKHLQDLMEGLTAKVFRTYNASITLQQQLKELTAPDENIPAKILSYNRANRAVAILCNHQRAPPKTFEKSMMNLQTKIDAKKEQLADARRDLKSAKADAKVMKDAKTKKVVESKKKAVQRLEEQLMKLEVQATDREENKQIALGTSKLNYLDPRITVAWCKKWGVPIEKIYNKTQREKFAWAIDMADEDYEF
Experimental: as §1

[4] = system: Human lymphoblast RPMI 8402 cells; assay: MTT-microtiter plate tetrazolinium cytotoxicity assay (MTA); format: cell-based; details: Homo sapiens, RPMI 8402, 96 h
Source text: The results were plotted and the IC50 then measured.

**Q.** With CC[C@@]1(O)C(=O)OCc2c1cc1n(c2=O)Cc2cc3ccccc3nc2-1 [CPT, camptothecin, reference compound] as the compound, how does the “Topo II-mediated DNA cleavage (REC, Relative Effective Concentration)” value [1] read?
**A.** >1000

**Q.** What about the IC50 [2] of the same compound?
**A.** > 10000 nM

**Q.** And the “resistance of recombinant CPT-K5 topoisomerase I to the drug” value [3]?
**A.** over 1000 fold

**Q.** And the IC50 ([4]; read-out: Cytotoxicity IC50 RPMI)?
**A.** 4 nM

**Q.** What about the IC50 ([4]; read-out: Cytotoxicity RPMI 8402) of the same compound?
**A.** 3 ng/mL
